One may read the MIC as the lowest concentration found to suppress growth.

Assay in all cases: Antibacterial effect (MIC), micro-liquid dilution method (CLSI)
Common to all, as to format: cell-based

Assay [1] deals with E. coli ATCC 25922. The conditions noted are these: Escherichia coli, ATCC25922. The protocol:
(§1) Three strains Enterobacteriaceae E. coli ATCC 25922, E. coli ATCC BAA-2523, K. pneumonia ATCC BAA-1705 were used to determine the Minimum Inhibitory Concentration (MIC) of each compound by the micro-liquid dilution method according to the requirements of the Institute of Clinical and Laboratory Standard (CLSI). 2-fold series diluted compounds (with a final concentration range […]) were added to a round bottom 96-well plate (Catalog #3788, Corning). A single clone of fresh bacteria on the plate of Mueller Hinton II Agar (MHA, Cat. No. 211438, BD BBL™) after overnight culture was picked and suspended in sterile saline to adjust the concentration to 1×10^8 CFU/mL, and then diluted to 5×10^5 CFU/mL by Cation-Adjusted Mueller Hinton II Broth (MHB, Catalog #212332, BD BBL™), 100 μL of which was added to the round bottom 96-well plate containing the drug. The plate was inverted and incubated at 37° C. for 20-24 hours, and the MIC value was read. The lowest drug concentration that inhibits bacterial growth was defined as MIC.

Assay [2] concerns K. pneumoniae ATCC BAA-1705. The conditions noted are these: Klebsiella pneumoniae, ATCCBAA1705. As to the method:
as §1

The test system of assay [3] is E. coli ATCC BAA-2523. The conditions noted are these: Escherichia coli, ATCCBAA2523. As to the method:
as §1

In brackets after ≈: the same amount, converted by molar mass. Where two headings read alike, the source gives them in different places.

For `CN[C@@H]1[C@@H](O)[C@@H](O[C@@H]2[C@@H](O)[C@H](O[C@H]3OC(CNCCOCCONC(=N)NCC(F)F)=CC[C@H]3N)[C@@H](N)C[C@H]2NC(=O)[C@@H](O)CCN)OC[C@]1(C)O` [Compound 2], the MIC in assay [1] (E. coli ATCC 25922, 37° C., 20-24 hours, read-out: MIC) came out at 2 µM (≈ 1.52 µg/mL); in assay [2] (K. pneumoniae ATCC BAA-1705, 37° C., 20-24 hours, read-out: MIC), 4 µM (≈ 3.03 µg/mL); in assay [3] (E. coli ATCC BAA-2523, 37° C., 20-24 hours, read-out: MIC), 4 µM (≈ 3.03 µg/mL).
As for `CN[C@@H]1[C@@H](O)[C@@H](O[C@@H]2[C@@H](O)[C@H](O[C@H]3OC(CNCCCONC(=N)N)=CC[C@H]3N)[C@@H](N)C[C@H]2NC(=O)[C@@H](O)CCN)OC[C@]1(C)O` [Compound 3], the MIC is 0.5 µM (≈ 0.332 µg/mL) in assay [1], 0.25 µM (≈ 0.166 µg/mL) in assay [2] and 1 µM (≈ 0.664 µg/mL) in assay [3].

The values are drawn from patent publication US12338263B2, “Antibacterial aminoglycoside derivatives” (priority 2019, dated 2025).
